# Test results published in patent US20260356840A1, “[1,2,4]TRIAZOLO[1,5-A]PYRIMIDINONE WRN INHIBITORS” (Nimbus Wadjet, Inc., priority 2023, published 2026).
# Target: T1, human Werner helicase (Uniprot Q14191, amino acids 517-1235 with L1074F point mutation), WRN-BV08 (Homo sapiens, UniProt Q14191, L1074F)
# T1 construct: Uniprot Q14191, amino acids 517-1235 with L1074F point mutation; TEV cleavable 8xHis tag (C, cleaved yes); made in house; host or cells: Sf9 insect cells (baculovirus, pFastBac)
# Experiment: WRN (BV08) ADP-Glo Assay
# Assay type: biochemical
# T1 sequence (Q14191 517-1235 L1074F): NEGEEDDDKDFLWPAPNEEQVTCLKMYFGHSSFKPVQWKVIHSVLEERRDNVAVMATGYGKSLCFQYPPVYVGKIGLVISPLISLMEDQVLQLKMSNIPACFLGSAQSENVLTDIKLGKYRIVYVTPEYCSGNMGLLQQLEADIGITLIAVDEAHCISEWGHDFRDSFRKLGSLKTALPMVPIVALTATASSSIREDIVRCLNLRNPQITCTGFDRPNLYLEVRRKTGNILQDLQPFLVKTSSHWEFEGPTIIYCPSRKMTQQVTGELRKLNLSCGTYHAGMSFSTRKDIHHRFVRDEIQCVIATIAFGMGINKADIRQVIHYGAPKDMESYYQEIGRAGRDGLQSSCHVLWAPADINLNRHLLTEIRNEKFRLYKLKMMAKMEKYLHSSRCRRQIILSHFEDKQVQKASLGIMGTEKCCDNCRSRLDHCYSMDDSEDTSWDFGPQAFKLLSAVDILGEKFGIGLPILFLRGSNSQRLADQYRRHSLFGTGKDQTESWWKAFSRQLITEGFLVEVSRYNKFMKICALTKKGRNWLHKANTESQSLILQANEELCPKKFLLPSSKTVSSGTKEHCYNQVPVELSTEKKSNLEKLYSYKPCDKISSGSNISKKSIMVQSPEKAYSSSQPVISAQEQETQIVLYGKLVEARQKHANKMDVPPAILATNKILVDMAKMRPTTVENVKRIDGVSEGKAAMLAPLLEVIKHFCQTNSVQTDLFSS
row,Compound,IC50
1,"CCc1c(N2CCN(C(=O)c3ncnc(C)c3O)CC2)c(=O)n2nc(-c3ccnc(OC)c3F)nc2n1CC(=O)Nc1ccc(C(F)(F)F)cc1Cl [Compound I-45, N-[2-chloro-4-(trifluoromethyl)phenyl]-2-[5-ethyl-2-(3-fluoro-2-methoxypyridin-4-yl)-6-[4-(5-hydroxy-6-methylpyrimidine-4-carbonyl)piperazin-1-yl]-7-oxo-4H,7H-[1,2,4]triazolo[1,5-a]pyrimidin-4-yl]acetamide]",5 to 50 nM
2,"CCc1c(N2CCN(C(=O)CCO)CC2)c(=O)n2nc(C3=CCOCC3)nc2n1CC(=O)Nc1ccc(C(F)(F)F)cc1Cl [Compound I-24, N-[2-chloro-4-(trifluoromethyl)phenyl]-2-[2-(3,6-dihydro-2H-pyran-4-yl)-5-ethyl-6-[4-(3-hydroxypropanoyl)piperazin-1-yl]-7-oxo-4H,7H-[1,2,4]triazolo[1,5-a]pyrimidin-4-yl]acetamide]",5 to 50 nM
3,"CCc1c(N2CCN(C(=O)c3nn(C)cc3O)CC2)c(=O)n2nc(C3=CCOCC3)nc2n1CC(=O)Nc1ccc(C(F)(F)F)cc1Cl [Compound I-12, N-[2-chloro-4-(trifluoromethyl)phenyl]-2-[2-(3,6-dihydro-2H-pyran-4-yl)-5-ethyl-6-[4-(4-hydroxy-1-methyl-1H-pyrazole-3-carbonyl)piperazin-1-yl]-7-oxo-4H,7H-[1,2,4]triazolo[1,5-a]pyrimidin-4-yl]acetamide]",5 to 50 nM
4,"CCc1c(N2CCN(C(=O)CC#N)CC2)c(=O)n2nc(C3=CCOCC3)nc2n1CC(=O)Nc1ccc(C(F)(F)F)cc1Cl [Compound I-25, N-[2-chloro-4-(trifluoromethyl)phenyl]-2-{6-[4-(2-cyanoacetyl)piperazin-1-yl]-2-(3,6-dihydro-2H-pyran-4-yl)-5-ethyl-7-oxo-4H,7H-[1,2,4]triazolo[1,5-a]pyrimidin-4-yl}acetamide]",5 to 50 nM
5,"COc1cc(-c2nc3n(CC(=O)Nc4ccc(C(F)(F)F)cc4Cl)cc(C4CCN(C(=O)c5ncnc(C)c5O)CC4)c(=O)n3n2)ccn1 [Compound I-81, N-[2-chloro-4-(trifluoromethyl)phenyl]-2-{6-[1-(5-hydroxy-6-methylpyrimidine-4-carbonyl)piperidin-4-yl]-2-(2-methoxypyridin-4-yl)-7-oxo-4H,7H-[1,2,4]triazolo[1,5-a]pyrimidin-4-yl}acetamide]",100 to 500 nM
6,"CCc1c(N2CCN(C(=O)c3ncnc(C)c3O)CC2)c(=O)n2nc(-c3ccc(OC)nc3)nc2n1CC(=O)Nc1ccc(C(F)(F)F)cc1Cl [Compound I-22, N-[2-chloro-4-(trifluoromethyl)phenyl]-2-{5-ethyl-6-[4-(5-hydroxy-6-methylpyrimidine-4-carbonyl)piperazin-1-yl]-2-(6-methoxypyridin-3-yl)-7-oxo-4H,7H-[1,2,4]triazolo[1,5-a]pyrimidin-4-yl}acetamide]",5 to 50 nM
7,"CCc1c(N2CCN(C(C)=O)CC2)c(=O)n2nc(C3=CCOCC3)nc2n1CC(=O)Nc1ccc(C(F)(F)F)cc1Cl [Compound I-16, 2-[6-(4-acetylpiperazin-1-yl)-2-(3,6-dihydro-2H-pyran-4-yl)-5-ethyl-7-oxo-4H,7H-[1,2,4]triazolo[1,5-a]pyrimidin-4-yl]-N-[2-chloro-4-(trifluoromethyl)phenyl]acetamide]",5 to 50 nM
8,"CCc1c(N2CCN(C(=O)c3cnn(C)c3)CC2)c(=O)n2nc(-c3cc(OC)ccn3)nc2n1CC(=O)Nc1ccc(C(F)(F)F)cc1Cl [Compound I-69, N-[2-chloro-4-(trifluoromethyl)phenyl]-2-[5-ethyl-2-(4-methoxypyridin-2-yl)-6-[4-(1-methyl-1H-pyrazole-4-carbonyl)piperazin-1-yl]-7-oxo-4H,7H-[1,2,4]triazolo[1,5-a]pyrimidin-4-yl]acetamide]",5 to 50 nM
9,"CCc1c(N2CCN(C(=O)c3ncnc(C)c3O)CC2)c(=O)n2nc(-c3ccn(C4CC4)n3)nc2n1CC(=O)Nc1ccc(C(F)(F)F)cc1Cl [Compound I-33, N-[2-chloro-4-(trifluoromethyl)phenyl]-2-[2-(1-cyclopropyl-1H-pyrazol-3-yl)-5-ethyl-6-[4-(5-hydroxy-6-methylpyrimidine-4-carbonyl)piperazin-1-yl]-7-oxo-4H,7H-[1,2,4]triazolo[1,5-a]pyrimidin-4-yl]acetamide]",5 to 50 nM
10,"CCc1c(N2CCN(C(=O)c3cnn(C)c3)CC2)c(=O)n2nc(-c3ccnc(OC)c3)nc2n1CC(=O)Nc1ccc(S(F)(F)(F)(F)F)cc1Cl [Compound I-82, N-[2-chloro-4-(pentafluoro-lambda6-sulfanyl)phenyl]-2-[5-ethyl-2-(2-methoxypyridin-4-yl)-6-[4-(1-methyl-1H-pyrazole-4-carbonyl)piperazin-1-yl]-7-oxo-4H,7H-[1,2,4]triazolo[1,5-a]pyrimidin-4-yl]acetamide]",5 to 50 nM
11,"CCc1c(N2CCN(C(=O)c3ncnc(C)c3O)CC2)c(=O)n2nc(-c3cc(C)nc(OC)c3)nc2n1CC(=O)Nc1ccc(C(F)(F)F)cc1Cl [Compound I-43, N-[2-chloro-4-(trifluoromethyl)phenyl]-2-{5-ethyl-6-[4-(5-hydroxy-6-methylpyrimidine-4-carbonyl)piperazin-1-yl]-2-(2-methoxy-6-methylpyridin-4-yl)-7-oxo-4H,7H-[1,2,4]triazolo[1,5-a]pyrimidin-4-yl}acetamide]",5 to 50 nM
12,"CCc1c(N2CCN(C(=O)CC(C)(C)O)CC2)c(=O)n2nc(C3=CCOCC3)nc2n1CC(=O)Nc1ccc(C(F)(F)F)cc1Cl [Compound I-40, N-[2-chloro-4-(trifluoromethyl)phenyl]-2-[2-(3,6-dihydro-2H-pyran-4-yl)-5-ethyl-6-[4-(3-hydroxy-3-methylbutanoyl)piperazin-1-yl]-7-oxo-4H,7H-[1,2,4]triazolo[1,5-a]pyrimidin-4-yl]acetamide]",50 to 100 nM
13,"CCc1c(N2CCN(C(=O)c3cnn(C)c3)CC2)c(=O)n2nc(-c3cnn(CC(C)(C)O)c3)nc2n1CC(=O)Nc1ccc(C(F)(F)F)cc1Cl [Compound I-56, N-[2-chloro-4-(trifluoromethyl)phenyl]-2-{5-ethyl-2-[1-(2-hydroxy-2-methylpropyl)-1H-pyrazol-4-yl]-6-[4-(1-methyl-1H-pyrazole-4-carbonyl)piperazin-1-yl]-7-oxo-4H,7H-[1,2,4]triazolo[1,5-a]pyrimidin-4-yl}acetamide]",5 to 50 nM
14,"CCc1c(N2CCN(C(=O)c3c(F)cccc3F)CC2)c(=O)n2nc(C3=CCOCC3)nc2n1CC(=O)Nc1ccc(C(F)(F)F)cc1Cl [Compound I-10, N-[2-chloro-4-(trifluoromethyl)phenyl]-2-{6-[4-(2,6-difluorobenzoyl)piperazin-1-yl]-2-(3,6-dihydro-2H-pyran-4-yl)-5-ethyl-7-oxo-4H,7H-[1,2,4]triazolo[1,5-a]pyrimidin-4-yl}acetamide]",5 to 50 nM
15,"CCc1c(N2CCN(C(=O)c3cnn(C)c3)CC2)c(=O)n2nc(-c3cccnc3OC)nc2n1CC(=O)Nc1ccc(C(F)(F)F)cc1Cl [Compound I-54, N-[2-chloro-4-(trifluoromethyl)phenyl]-2-[5-ethyl-2-(2-methoxypyridin-3-yl)-6-[4-(1-methyl-1H-pyrazole-4-carbonyl)piperazin-1-yl]-7-oxo-4H,7H-[1,2,4]triazolo[1,5-a]pyrimidin-4-yl]acetamide]",5 to 50 nM

# Continued, values first:
row,IC50,Compound
1,5 to 50 nM,"CCc1c(N2CCN(C(=O)c3cc(C)no3)CC2)c(=O)n2nc(-c3ccnc(OC)c3)nc2n1CC(=O)Nc1ccc(C(F)(F)F)cc1Cl [Compound I-65, N-[2-chloro-4-(trifluoromethyl)phenyl]-2-[5-ethyl-2-(2-methoxypyridin-4-yl)-6-[4-(3-methyl-1,2-oxazole-5-carbonyl)piperazin-1-yl]-7-oxo-4H,7H-[1,2,4]triazolo[1,5-a]pyrimidin-4-yl]acetamide]"
2,100 to 500 nM,"CCc1c(N2CCN(C(=O)c3nc(C)cs3)CC2)c(=O)n2nc(-c3ccnc(OC)c3)nc2n1CC(=O)Nc1ccc(C(F)(F)F)cc1Cl [Compound I-57, N-[2-chloro-4-(trifluoromethyl)phenyl]-2-[5-ethyl-2-(2-methoxypyridin-4-yl)-6-[4-(4-methyl-1,3-thiazole-2-carbonyl)piperazin-1-yl]-7-oxo-4H,7H-[1,2,4]triazolo[1,5-a]pyrimidin-4-yl]acetamide]"
3,5 to 50 nM,"CCc1c(N2CCN(C(=O)c3ncn(C)n3)CC2)c(=O)n2nc(-c3ccnc(OC)c3)nc2n1CC(=O)Nc1ccc(C(F)(F)F)cc1Cl [Compound I-73, N-[2-chloro-4-(trifluoromethyl)phenyl]-2-[5-ethyl-2-(2-methoxypyridin-4-yl)-6-[4-(1-methyl-1H-1,2,4-triazole-3-carbonyl)piperazin-1-yl]-7-oxo-4H,7H-[1,2,4]triazolo[1,5-a]pyrimidin-4-yl]acetamide]"
4,50 to 100 nM,"CCc1c(N2CCN(C(=O)c3ncc(C)s3)CC2)c(=O)n2nc(-c3ccnc(OC)c3)nc2n1CC(=O)Nc1ccc(C(F)(F)F)cc1Cl [Compound I-58, N-[2-chloro-4-(trifluoromethyl)phenyl]-2-[5-ethyl-2-(2-methoxypyridin-4-yl)-6-[4-(5-methyl-1,3-thiazole-2-carbonyl)piperazin-1-yl]-7-oxo-4H,7H-[1,2,4]triazolo[1,5-a]pyrimidin-4-yl]acetamide]"
5,5 to 50 nM,"CCc1c(N2CCN(C(=O)c3nn(C)cc3O)CC2)c(=O)n2nc(-c3ccnc(OC)c3)nc2n1CC(=O)Nc1ccc(C(F)(F)F)cc1Cl [Compound I-35, N-[2-chloro-4-(trifluoromethyl)phenyl]-2-{5-ethyl-6-[4-(4-hydroxy-1-methyl-1H-pyrazole-3-carbonyl)piperazin-1-yl]-2-(2-methoxypyridin-4-yl)-7-oxo-4H,7H-[1,2,4]triazolo[1,5-a]pyrimidin-4-yl}acetamide]"
6,5 to 50 nM,"CCc1c(N2CCN(C(=O)c3cnn(C(F)F)c3)CC2)c(=O)n2nc(-c3ccnc(OC)c3)nc2n1CC(=O)Nc1ccc(C(F)(F)F)cc1Cl [Compound I-61, N-[2-chloro-4-(trifluoromethyl)phenyl]-2-(6-{4-[1-(difluoromethyl)-1H-pyrazole-4-carbonyl]piperazin-1-yl}-5-ethyl-2-(2-methoxypyridin-4-yl)-7-oxo-4H,7H-[1,2,4]triazolo[1,5-a]pyrimidin-4-yl)acetamide]"
